These results are taken from PubChem BioAssay AID1508591.

A value given as a limit tells only on which side of the number the result lay.

The conditions of the data set: rat; liver microsomes; pH 7.4; 15.0 min; 1.0 µM.
`CC(C)(C)c1ccc(-c2ccc(=O)n(CC(=O)NCCc3ccccc3)n2)cc1`: the half-life – broadly, the time in which the quantity being followed falls by half – was 1.6 min.
`COc1ccc(CN2CCN(C(=O)c3cc4c(s3)CCC4)CC2)cc1` displayed a half-life of 1.9 min.
Under `CCOC(=O)c1ccnc2cc(C(OCCN3CCCCC3)c3ccccc3Cl)sc12` (configuration not stated) stands 2.34 min; under `Cc1ccc(NC(=O)N(Cc2cn(C)c3ccccc23)C2CCCCC2)cc1C`, 1.95 min; under `O=C(c1ccccc1)N1CCN(c2nc(-c3ccc(Br)cc3)cs2)CC1`, > 30 min.
As for `O=C(CNC(=O)c1cnccn1)NC1CCCc2c1[nH]c1ccc(Cl)cc21` (configuration not stated), the figure is > 30 min; as for `O=[S+]([O-])(Nc1nccs1)c1ccc(NCc2cc(F)cc(Cl)c2O)cc1`, > 30 min.
In the case of `COC(=O)c1ccc2c(c1)nc1n2[C@@H](CNC(C)=O)COC1`, the half-life was > 30 min.
`Cc1cccc2c(C(=O)O)cc(-c3cccs3)nc12` showed a half-life of 8.96 min.
Under `Cn1cc(Nc2cnccc2C(=O)O)c2cccnc21` stands > 30 min; under `CCOC(=O)c1cc(-c2ccco2)nc2c1c(C)nn2CCC#N`, 3.57 min.
As for `COc1cccc(-c2noc(Nc3ccc4c(c3)OCCO4)n2)c1`, the figure is 20.7 min; as for `COC(=O)c1nc(-c2cccc3ccccc23)oc1OC`, 14 min; as for `CCOc1cc(CCNC(=O)c2cc3sccc3n2Cc2ccccc2)cc(F)c1OCC`, 2 min.
As for `NC(=O)C1CCN(c2ncc(-c3ccc4c(c3)OCO4)s2)CC1`, the figure is 7.65 min.
The compound `CN(C)c1cccc(-c2cc(N3CCC(C(N)=O)CC3)ncn2)c1` registered a half-life of 21.1 min.
Under `O=C(O)c1cnc(-c2ccc(F)cc2)nc1-c1ccncc1` stands > 30 min.
`CCOc1cccc(C(=O)Nc2nc3c(s2)CC(C(C)(C)C)CC3)c1` (configuration not stated) returned a half-life of 9.74 min.
Under `NC(=O)C1CCN(c2nc(-c3ccccc3Br)cs2)CC1` stands 2.86 min.
Under `O=C(Nc1nc(-c2ccccc2)cs1)c1ccncc1NS(=O)(=O)c1c(F)cc(F)cc1F` stands 5.7 min; under `CCCCN(C)C(=O)c1c(C)sc2ccn(CCC)c(=O)c12`, 13.3 min.
In the case of `Cc1ccc(NC(=O)Nc2cc3c(cc2N2CCCCC2)n(C)c(=O)n3C)cc1Cl`, the half-life came out at 6.3 min.
As for `Cc1ccc(S(=O)(=O)Nc2cnccc2C(=O)Nc2nc(-c3ccco3)cs2)cc1`, the figure is 1.9 min; as for `Cc1nc2sccn2c(=O)c1S(=O)(=O)Nc1ccc(N2CCN(C)CC2)cc1`, 17.8 min; as for `CC(=O)Nc1ccc(S(=O)(=O)Nc2nccs2)cc1`, > 30 min.
As for `Clc1ccc(-c2nnc(C3CCCCC3)o2)cc1`, the figure is 2.9 min; as for `NC(=O)C1CCN(c2nnc(-c3ccc4c(c3)OCCCO4)s2)CC1`, > 30 min; as for `CC(C)c1ccccc1-c1ncc(F)c(NCc2ccc(-n3ccnn3)cc2)n1`, 4.4 min.
Take `N#Cc1cnccc1-c1nc(Nc2ccc(F)c(F)c2)c2ccccc2n1`: the half-life stood at 6.4 min.
As for `CCOc1ccc(NC(=O)c2cccc(-n3cccc3)c2)cc1S(=O)(=O)N1CCOCC1`, the figure is 3.16 min; as for `O=S(=O)(Nc1nccs1)c1ccc(NCc2cccc(Br)c2O)cc1`, 14 min; as for `O=C(O)c1ccc(Nc2nc(-c3cc4ccccc4oc3=O)cs2)cc1O`, > 30 min.
As for `Nc1c(S(=O)(=O)c2cccs2)c2nc3ccccc3nc2n1Cc1ccccc1`, the figure is 1.27 min; as for `COc1ccc(OC)c(Nc2c3c(nc4ccccc24)CCC3)c1`, 1.5 min; as for `CO[C@@H]1[C@H](N(C)C(=O)c2ccccc2)C[C@H]2O[C@]1(C)n1c3ccccc3c3c4c(c5c6ccccc6n2c5c31)C(=O)NC4`, 6.54 min.
As for `O=C(Cc1ccc(O)cc1)N1CC(CNc2ccccc2)C2(C1)CN(c1ccccc1)C2` (configuration not stated), the figure is 9.42 min; as for `CCOC(=O)N1CCN(Cc2nc3cc(NC(=O)c4ccc(OC)cc4)ccc3n2C(C)C)CC1`, 26 min; as for `NC(=O)COc1ccc(C2CC(=O)Nc3n[nH]c(Nc4ccccc4)c32)cc1` (configuration not stated), > 30 min.
On to `Cc1ccc(-c2nc(NCC(=O)Nc3cccc(C(=O)O)c3)c3ccccc3n2)cc1`, for which the half-life was > 30 min.
Under `CC(C)N(CCC(=O)c1ccc2ccccc2c1)Cc1ccccc1` stands 1.65 min; under `O=C(C1CC(=O)N(c2n[nH]c3ccccc23)C1)N1CCC(c2noc3cc(F)ccc23)CC1` (configuration not stated), 19.1 min; under `Cc1noc(C)c1-c1ccc(-c2cc(C(N)=O)c(NC(N)=O)s2)c(O[C@H]2CCNC2)c1`, > 30 min.
Under `Cn1nnnc1Sc1ncnc2scc(-c3ccc(F)cc3)c12` stands 10.7 min.
As for `C=CC(=O)N1CCCN(c2cc(NCCC(=O)O)nc(-c3ccccn3)n2)CC1`, the figure is > 30 min; as for `Cc1ccc(O)c(-c2cc(-c3ccccc3C)[nH]n2)c1`, 24.4 min.
The compound `Fc1ccc(Nc2nc(-c3ccncc3F)nc3ccccc23)cc1F` returned a half-life of 20 min.
As for `CN(C)CCCn1cc(C2=C(c3c[nH]c4ccccc34)C(=O)NC2=O)c2ccccc21`, the figure is 10.5 min; as for `CN1CC=C(c2nc(Nc3ccc(F)c(F)c3)c3ccccc3n2)CC1`, 3.6 min; as for `Cn1c(CN2CCCCC2)nc2cc(NC(=O)c3cccc(Br)c3)ccc21`, > 30 min.
Under `CC(C)c1ccccc1-c1nc2c(c(NCc3ccc(-c4cccnc4)cc3)n1)CNC2` stands 6.21 min.
Under `Cc1noc(-c2cn(C3CCN(C(=O)c4ccc(OC(F)(F)F)cc4)CC3)nn2)n1` stands > 30 min.
Regarding `O=C(Nc1ncc(Cc2ccc(C(F)(F)F)cc2)s1)c1ccc(-c2ccccc2)o1`, the half-life was > 30 min.
As for `COc1nccc(-c2nc(Nc3ccc(F)c(F)c3)c3ccccc3n2)c1OC`, the half-life came out at 26 min.
As for `O=C(O)c1cccc(-n2cccc2/C=C2/NC(=O)N(c3cccc(Cl)c3)C2=O)c1`, the figure is > 30 min.
As for `CCN(CC)C(=O)c1coc(COc2ccc3c(c2)C(c2cccc(F)c2)N(C(=O)C(C)C)CC3)n1` (configuration not stated), the figure is 1.28 min; as for `CC(C)(C)c1ccc(C(=O)Nc2cn3cc(-n4ccnc4)ccc3n2)cc1`, > 30 min.
Under `NC(=O)C1CCN(c2ncc(Br)s2)CC1` stands > 30 min; under `COc1cc(-c2nc(Cn3nnc(C(=O)Nc4cc(C)cc(C)c4)c3C)c(C)o2)cc(OC)c1OC`, 20.6 min; under `C=CCON=C(C[C@H]1O[C@@H]2O[C@]3(C)CC[C@@H]4[C@H](C)CC[C@@H]([C@H]1C)[C@@]24OO3)[C@H]1O[C@@H]2O[C@]3(C)CC[C@H]4[C@H](C)CC[C@@H]([C@@H]1C)[C@@]24OO3`, 2.8 min.
For `O=C(Cc1ccccc1)Nc1ccc(S(=O)(=O)Nc2nccs2)cc1`, the half-life is > 30 min.
As for `NC(=O)C(=O)N/N=C/c1ccc([N+](=O)[O-])o1`, the half-life was > 30 min.
With `CCOc1ccc(N2CC(c3nc(-c4cc(OC)c(OC)c(OC)c4)no3)CC2=O)cc1` (configuration not stated), the half-life stood at 7.3 min.
Compound `CC(C)c1ccccc1-c1nc(NCc2ccc(-c3cccnc3)cc2)c2ccccc2n1` showed a half-life of 9.21 min.
Under `COc1ccc(Cn2c(C(=O)O)c(CNCc3cccc(OC)c3)c3ccc(C)cc32)cc1` stands 11.6 min; under `O=C(NCc1ccccc1)C1CCN(c2nc(-c3ccc(Br)cc3)cs2)CC1`, 1.75 min; under `Cc1cc(-c2nnc3n2CCCCC3)c(C)n1-c1ccc(C#N)cc1`, 3.6 min.
Under `Cc1ccc(S(=O)(=O)Nc2cc(Br)ccc2C(=O)Nc2nc(-c3ccccc3)cs2)cc1` stands 9.6 min; under `Cc1cc(-c2nnc3n2CCCCC3)c(C)n1-c1ccc(F)cc1`, 3.2 min; under `O=C(c1ccncc1)N1CCC2(CCCN(C(c3ccccc3)c3ccccc3)C2)CC1`, 2.2 min.
`COc1ccc(C2c3c(ncn(CCN4CCOCC4)c3=N)Oc3ccc4ccccc4c32)cc1OC` (configuration not stated): the half-life was found to be 3.6 min.
As for `Fc1ccc(-c2nc(-c3ccncc3)nc3ccccc23)cc1F`, the figure is 20 min.
Under `Cc1ccnc(NC(=S)N2CCN(c3cccc(C(F)(F)F)n3)CC2)c1` stands 15 min.
Under `Cc1ccc2oc3c(c(=O)c2c1)C(c1cccc(O)c1)N(CCCN1CCOCC1)C3=O` (configuration not stated) stands 9.55 min; under `CCOc1ccc(C(=O)Nc2ccc(S(=O)(=O)N3CCCCC3c3cccnc3)cc2)cc1` (configuration not stated), 1.71 min; under `Clc1ccc(C2(c3ccc(-c4cn[nH]c4)cc3)CCNCC2)cc1`, > 30 min.
In the case of `Cc1nc(N)nc2ccccc12`, the half-life is > 30 min.
Under `Cc1cc(NS(=O)(=O)c2ccc(NC(=O)Cc3ccc(Cl)c(Cl)c3)cc2)n(C)n1` stands 13 min.
Under `Cc1ccccc1C(=O)N1CCC(C(=O)N2CCC(N3Cc4ccccc4C3=O)CC2)CC1` stands 11.8 min; under `Fc1ccc(N2CCCN(CC3[C@H]4CNC[C@@H]34)CC2)cc1` (some centres not stated), > 30 min; under `COc1ccccc1-c1nnc2sc(-c3ccc(N(C)C)cc3)nn12`, 2.24 min.
As for `CN(C)c1ccc(CN2CCNc3cc(Nc4ccccc4)ncc3C2)cc1`, the figure is 2.01 min.
Turning to `CCOc1cc2ncc(C#N)c(Nc3ccc(OCc4ccccn4)c(Cl)c3)c2cc1NC(=O)C=CCN(C)C`, the half-life is > 30 min.
As for `COc1ccc(-c2nc3ccccc3s2)cc1NC(=O)c1ccc(F)cc1`, the figure is > 30 min; as for `COc1ccnc(NC(=S)N2CCN(c3cccc(C(F)(F)F)c3)CC2)c1`, > 30 min; as for `N#Cc1ccc(Nc2ncc(-c3cccc4ccccc34)o2)cc1`, > 30 min.
Under `CN1C(=O)c2ccccc2[S@](=O)c2ccc(C(=O)NCc3ccc(Cl)cc3)cc21` stands 15 min.
Under `Fc1ccc(Nc2nc(-c3ccncc3)cc3ccccc23)cc1F` stands 24 min; under `COc1cccc(CNc2ccc(S(=O)(=O)Nc3nc(C)cs3)cc2)c1O`, > 30 min.
With `COc1ccc(O)c(CNc2ccc(S(=O)(=O)Nc3nccs3)cc2)c1`, the half-life is > 30 min.
Under `Cc1ccc(S(=O)(=O)Nc2ccccc2C(=O)Nc2nc(-c3ccc(Cl)cc3)cs2)cc1` stands 8.85 min; under `O=C(Nc1cccc(C(F)(F)F)c1)c1ccccc1NC(=O)C1CCCCC1`, 25 min; under `O=S(=O)(Nc1ccc(S(=O)(=O)Nc2nccs2)cc1)c1ccc2ccccc2c1`, > 30 min.
